Measured values as given in patent publication US20090042726A1, “Novel Herbicides” (SYNGENTA LIMITED, priority 2005, published 2009).

Tested on: Monocotyledonous and dicotyledonous test plants
Assay: Herbicidal action, application pre-emergence (Example B1)
Assay type: in vivo
Set-up: key: 10=total damage to plant; 0=no damage to plant
Conditions: 1000 g/ha, evaluated after 9 or 13 days; for AGSTE herbicidal action (damage score 0-10): Agrostis-tenius; for AMARE herbicidal action (damage score 0-10): Amaranthus retroflexus; for DIGSA herbicidal action (damage score 0-10): Digitaria sanguinalis; for POATR herbicidal action (damage score 0-10): Poa trivialis; for SETIT herbicidal action (damage score 0-10): Setaria italica
Method: Monocotyledonous and dicotyledonous test plants were sown in sterilised standard soil in seed trays each having 96 cells. After one day (pre-emergence) under controlled conditions in a climatic chamber (cultivation at 23/17° C., day/night; 13 hours light; 50-60% humidity; after application at 24/19° C., day/night), the plants were treated with an aqueous spray solution of 1000 mg/l of the active ingredient used (including 10% DMSO as solvent). The plants were grown on in the climatic chamber until the test was evaluated (10=total damage to plant, 0=no damage to plant) after 9 or 13 days.

SMILES	AGSTE herbicidal action (damage score 0-10)	AMARE herbicidal action (damage score 0-10)	DIGSA herbicidal action (damage score 0-10)	POATR herbicidal action (damage score 0-10)	SETIT herbicidal action (damage score 0-10)
C#CCn1cc(CS(=O)(=O)C2=NOC(C)(C)C2F)c(C(F)(F)F)n1 (stereo not drawn) [2.50]	10	10	10	10	–
Cn1nc(C(F)(F)F)c(C[S+]([O-])C2=NOC(C)(C)C2(Cl)Cl)c1OCC(F)(F)F (stereo not drawn) [2.20]	5	4	9	8	7
Cc1nn(C)nc1CS(=O)(=O)C1=NOC(C)(C)C1F (stereo not drawn) [7.04]	10	10	10	10	9
Cc1nn(C)nc1CSC1=NOC(C)(C)C1F (stereo not drawn) [Compound No. 7.01]	10	0	8	0	8
Cn1nc(OC(F)F)cc1CSC1=NOC(C)(C)C1F (stereo not drawn) [Compound No. 6.08]	9	3	8	9	–
CCn1ncc(CSC2=NOC(C)(C)C2F)n1 (stereo not drawn) [Compound No. 7.34]	9	6	8	8	–
CC1(C)ON=C(S(=O)(=O)Cc2c(F)cccc2F)C1F (stereo not drawn) [1.17]	10	10	8	10	8
Cn1nc(CS(=O)(=O)C2=NOC(C)(C)C2F)c(C(F)(F)F)c1C#N (stereo not drawn) [4.09]	10	9	7	4	–
C=CCn1cc(CS(=O)(=O)C2=NOC(C)(C)C2F)c(C(F)(F)F)n1 (stereo not drawn) [2.53]	10	10	9	10	–
Cn1nc(C(F)(F)F)c(C[S+]([O-])C2=NOC(C)(C)C2Br)c1OCC(F)(F)F (mixture of isomers) [2.02]	10	7	10	5	7
Cn1nc(C(F)(F)F)c(C[S+]([O-])C2=NOC(C)(C)C2F)c1OC(F)F (single isomer, unassigned) [2.25]	10	10	10	10	10
CC(C)n1nc(C[S+]([O-])C2=NOC(C)(C)C2F)c(C(F)(F)F)n1 (single isomer, unassigned) [7.25]	10	9	9	10	–
Cn1nc(C(F)(F)F)cc1C[S+]([O-])C1=NOC(C)(C)C1F (mixture of isomers) [6.02]	10	10	9	10	–
Cn1nc(C(F)(F)F)cc1CS(=O)(=O)C1=NOC(C)(C)C1F (stereo not drawn) [6.04]	10	9	9	10	–
Cn1cc(C(F)(F)F)c(CS(=O)(=O)C2=NOC(C)(C)C2F)n1 (stereo not drawn) [4.03, 3-(4-fluoro-5,5-dimethyl-4,5-dihydro-isoxazol-3-ylsulfonylmethyl)-1-methyl-4-trifluoromethyl-1H-pyrazole]	10	8	10	10	7
Cn1nc(C[S+]([O-])C2=NOC(C)(C)C2F)c(C(F)(F)F)c1C#N (single isomer, unassigned) [4.07]	10	9	9	10	–
Cn1nc(C(F)(F)F)c(C[S+]([O-])C2=NOC(C)(C)C2F)c1OC(F)F (single isomer, unassigned) [2.24]	10	10	10	10	10

SMILES	AGSTE herbicidal action (damage score 0-10)	AMARE herbicidal action (damage score 0-10)	DIGSA herbicidal action (damage score 0-10)	POATR herbicidal action (damage score 0-10)	SETIT herbicidal action (damage score 0-10)
CC(c1c(C(F)(F)F)nn(C)c1OCC(F)(F)F)S(=O)(=O)C1=NOC(C)(C)C1F (mixture of isomers) [Compound No. 2.12]	10	6	9	10	9
Cn1nc(C(F)(F)F)c(CS(=O)(=O)C2=NOC(C)(C)C2F)c1F (stereo not drawn) [2.56]	10	10	10	10	–
Cn1nc(C(F)(F)F)cc1CSC1=NOC(C)(C)C1F (stereo not drawn) [Compound No. 6.01]	9	0	8	0	–
CC1(C)ON=C([S+]([O-])Cc2cccnc2Cl)C1F (mixture of isomers) [3.05]	9	10	8	10	–
CC1(C)ON=C([S+]([O-])Cc2nn(C3CCCC3)nc2C(F)(F)F)C1F (single isomer, unassigned) [7.12]	10	10	9	10	–
Cc1nc(C(F)(F)F)ccc1CS(=O)(=O)C1=NOC(C)(C)C1F (stereo not drawn) [3.03]	10	10	0	10	9
COCCn1nc(C[S+]([O-])C2=NOC(C)(C)C2F)c(C(F)(F)F)n1 (mixture of isomers) [7.19]	6	10	9	10	–
C=CCn1nc(CS(=O)(=O)C2=NOC(C)(C)C2F)c(C(F)(F)F)n1 (stereo not drawn) [7.10]	10	10	10	10	–
Cc1nc(C[S+]([O-])C2=NOC(C)(C)C2F)n(C)n1 (single isomer, unassigned) [8.03]	10	0	9	8	–
Cn1nc(C[S+]([O-])C2=NOC(C)(C)C2F)c(C(F)(F)F)c1C#N (single isomer, unassigned) [4.08]	10	5	9	8	–
Cn1nc(C(F)(F)F)c(Cl)c1CSC1=NOC(C)(C)C1F (stereo not drawn) [Compound No. 6.05]	10	0	5	4	–
Cn1nc(C(F)(F)F)c(Cl)c1CS(=O)(=O)C1=NOC(C)(C)C1F (stereo not drawn) [6.07]	10	7	9	10	–
C=CCn1cc(C[S+]([O-])C2=NOC(C)(C)C2F)c(C(F)(F)F)n1 (mixture of isomers) [2.52]	10	9	9	9	–
Cn1nc(OC(F)F)c(CS(=O)(=O)C2=NOC(C)(C)C2F)c1C(F)(F)F (stereo not drawn) [2.31]	10	10	10	10	10
COc1cc(C[S+]([O-])C2=NOC(C)(C)C2F)n(C)n1 (mixture of isomers) [6.12]	10	10	10	10	–
Cn1cc(C[S+]([O-])C2=NOC(C)(C)C2F)c(C(F)(F)F)n1 (mixture of isomers) [2.33]	10	6	9	9	9
